Tests used:
[1] = tested on: citrate synthase; settings: Angew. Chem., 92, 133/1980; cited from earlier work
[2] = tested on: HMG-CoA-reductase; settings: cited from earlier work
[3] = tested on: HMG-CoA synthase; settings: J. Biol. Chem., 257, 2842/1982; cited from earlier work
[4] = tested on: Rat hepatocytes; test: 14C-acetate incorporation into cholesterol (cholesterol biosynthesis) in rat hepatocytes; format: cell-based; settings: Hepatocyte, end concentration about 10^-5 M, 48 h incubation, DMSO, related to solvent treated control
Description: Rat hepatocytes were isolated according to Berry and Friend (J. Cell Biol., 43, 506-520 (1969)) and cultured as described by Davis et al. (J. Biol. Chem., 254, 2010-2016 (1979)). 2-^14 C-Acetate was used as a precursor for determination of the cholesterol biosynthesis. Newly synthetized cholesterol was determined by liquid scintillation spectrometry after extraction of radiolabelled sterols from the culture medium (Can. J. Biochem. Physiol., 37, 912-917 (1959)). The test compounds were dissolved in dimethylsulfoxide. 1 μl of this solution was given to 1 ml of the culture medium. The percentage of inhibition of ^14 C-acetate incorporation is related to a solvent treated control.
The compounds listed in the following table were tested with respect to their effect on the rate hepatocytes according to the method mentioned above. The compounds were dissolved in DMSO. 1 μl of this solution was added to 1 ml of the culture medium.
The end concentration was about 10^-5 M, the period of the incubation was 48 h. The ^14 C-acetate incorporation in cholesterol was determined.

Structure (SMILES): CC(C)(COP(=O)(O)OP(=O)(O)OC[C@H]1O[C@@H](n2cnc3c(N)ncnc32)[C@H](O)[C@@H]1OP(=O)(O)O)[C@@H](O)C(=O)NCCC(=O)NCCSCCC(O)(CC(=O)O)C(=O)O (stereo partly drawn) [3,4-dicarboxy-3-hydroxybutylcoenzyme A]
- inhibiting action on the enzyme citrate synthase (in words) [1]: exerts an inhibiting action

Structure (SMILES): CC(O)(CCSCCNC(=O)CCNC(=O)[C@H](O)C(C)(C)COP(=O)(O)OP(=O)(O)OC[C@H]1O[C@@H](n2cnc3c(N)ncnc32)[C@H](O)[C@@H]1OP(=O)(O)O)CC(=O)O (stereo partly drawn) [3-hydroxy-3-methyl-4-carboxybutyl-coenzyme A]
- inhibiting action on the enzyme HMG-CoA-reductase (in words) ([2]; FEBS Letters, 128, 145/1981): possesses an inhibiting action

Structure (SMILES): CC(=O)CCSCCNC(=O)CCNC(=O)[C@H](O)C(C)(C)COP(=O)(O)OP(=O)(O)OC[C@H]1O[C@@H](n2cnc3c(N)ncnc32)[C@H](O)[C@@H]1OP(=O)(O)O [3-oxobutyl-coenzyme A]
- substrate for HMG-CoA synthase (in words) [3]: substrate

Structure (SMILES): CC[C@H](C)C(=O)O[C@H]1CCC=C2C=C[C@H](C)[C@H](CC[C@@H]3C[C@@H](O)CC(=O)O3)[C@H]21 [Compactin, 2-Methylbutanoic acid 1,2,3,7,8,8α-hexahydro-7-methyl-8-[2-(tetrahydro-4-hydroxy-6-oxo-2H-pyran-2-yl)ethyl]-1-naphthalenyl ester]
- inhibition at 10 µM [4]: 59%
- inhibitor of HMG-CoA reductase (in words) ([2]; comparison compound): potent inhibitor

Structure (SMILES): CC(O)(CCSCCNC(=O)CCNC(=O)C(O)C(C)(C)CO)CC(=O)O (stereo not drawn) [Example 2, 9,13-Diaza-10,14-dioxo-6-thia-3,15,17-trihydroxy-3,16,16-trimethylheptadecanoic acid]
- inhibition at 10 µM [4]: 33%

Structure (SMILES): CCOC(=O)CC(C)(C)CCSCCNC(=O)CCNC(=O)C(O)C(C)(C)CO (stereo not drawn) [Example 11, 9,13-Diaza-15,17-dihydroxy-10,14-dioxo-3,3,16,16-tetramethyl-6-thiaheptadecanoic acid ethyl ester]
- inhibition at 10 µM [4]: 28%

Structure (SMILES): CC(CC(=O)NCCSCCC(C)(C)CC(=O)O)NC(=O)c1ccccc1 (stereo not drawn) [Example 15d, 9,13-diaza-10,14-dioxo-14-phenyl-6-thia-3,3,12-trimethyltetradecanoicacid]
- inhibition at 10 µM [4]: 12%

Structure (SMILES): O=C(O)CCCCSCCNC(=O)CNCc1ccccc1 [Example 16, 9,12-Diaza-10-oxo-13-phenyl-6-thiatridecanoic acid]
- inhibition at 10 µM [4]: 10%

Source: patent US4609673A, “Carboxylic acid derivatives, processes for the preparation thereof and pharmaceutical compositions containing them” (Boehringer Mannheim GmbH, priority 1984, dated 1986)
